Our source for the IC50 values is patent US8946439B2, “Amide compounds, compositions and uses thereof” (Evotec AG, priority 2008, dated 2015).

SMILES strings stand for the structures.

In assay [1] the target is T1, hP2X3 (Homo sapiens, UniProt P56373).
T1 construct: expressed in transfected cells; host or cells: e.g. HEK293 or 1321N1
T1 sequence (P56373 1-397): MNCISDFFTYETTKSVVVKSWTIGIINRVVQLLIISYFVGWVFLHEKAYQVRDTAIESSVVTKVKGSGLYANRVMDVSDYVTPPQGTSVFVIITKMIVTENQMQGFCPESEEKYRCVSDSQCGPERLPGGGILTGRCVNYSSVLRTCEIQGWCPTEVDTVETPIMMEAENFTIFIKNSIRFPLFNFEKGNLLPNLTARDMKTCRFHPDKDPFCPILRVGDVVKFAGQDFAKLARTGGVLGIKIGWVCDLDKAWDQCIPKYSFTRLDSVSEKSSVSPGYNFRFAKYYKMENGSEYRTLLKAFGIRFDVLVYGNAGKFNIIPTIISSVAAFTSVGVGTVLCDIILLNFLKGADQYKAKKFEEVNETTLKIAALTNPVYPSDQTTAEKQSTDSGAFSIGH
Nature of the assay: Calcium uptake assay (P2X antagonist assay), P2X3 homomer. Type of assay: cell-based. The conditions noted are these: calcium uptake assay, hP2X3; read-out: IC50 hP2X3 (nM), Ca Influx. An excerpt: (§1) The human P2X2/3 chimera clone is created as described by Neelands et al, and then cloned into an expression vector as above. Receptors are expressed in cells (e.g., HEK293 or 1321N1 (obtained from the ECACC)) via transient transfection using standard lipid mediated transfection, or by creation of stable transfectants for each receptor. For expression of the P2X2/3 heteromeric receptor, the P2X3 expression vector is stably transfected into a cell line already stably expressing P2X2. P2X2/3 heteromer function is isolated using pharmacological methods. Cell lines are maintained in DMEM+5% Glutamax, the appropriate level of selective antibiotic, and 10% heat inactivated FBS.
(§2) Functional activity of compounds at the P2X receptor is determined by measuring their ability to inhibit agonist-induced calcium influx. Compounds are tested for antagonist activity against the P2X2/3 chimera, the P2X3 homomer, or the P2X2/3 heteromer. At the start of each screening day, the agonist EC50 is determined. Compound % inhibition or IC50s are subsequently determined using a predetermined agonist concentration (EC50-90 depending on cell line) as a stimulus. The agonists used are αβMeATP, ATP, or other ATP analogs. Compounds may be tested at concentrations ranging from 1 pM to 10 μM.
(§3) To test for antagonist activity, cells expressing the appropriate receptor are seeded onto 96 or 384 well plates 18-24 hours prior to assay. […] Plates are incubated at 37° C. and then equilibrated at room temperature. Antagonism of agonist-induced calcium influx is measured using a fluorescent imaging plate reader (e.g. FLIPR^TETRA, Molecular Devices, Sunnyvale, Calif.). The assay comprises two stages: a pre-treatment phase followed by a treatment phase. Compounds may be tested as follows: For the pre-treatment phase, 50 μL of 3× concentration of test compound in HBSS is added to cells containing […], of dye loading media to achieve a final concentration of 1× test compound. For the treatment phase, at a set interval after pre-treatment (1-30 minutes), 50 μL of 1× test compound plus 4× agonist solution is added, resulting in a final concentration of 1× compound and 1× agonist. […] Responses are measured as (peak fluorescence after agonist addition) minus (baseline fluorescence prior to treatment). Percent inhibition is calculated as follows:
(§4) [formula] IC50 values are determined by analyzing dose response data in a 4 parameter logistic fit using GraphPad Prizm.

Assay [2] deals with T2, hP2X2/3H (Homo sapiens, UniProt P56373+Q9UBL9).
T2 construct: expressed in transfected cells; host or cells: e.g. HEK293 or 1321N1
T2 sequence (Q9UBL9 1-471): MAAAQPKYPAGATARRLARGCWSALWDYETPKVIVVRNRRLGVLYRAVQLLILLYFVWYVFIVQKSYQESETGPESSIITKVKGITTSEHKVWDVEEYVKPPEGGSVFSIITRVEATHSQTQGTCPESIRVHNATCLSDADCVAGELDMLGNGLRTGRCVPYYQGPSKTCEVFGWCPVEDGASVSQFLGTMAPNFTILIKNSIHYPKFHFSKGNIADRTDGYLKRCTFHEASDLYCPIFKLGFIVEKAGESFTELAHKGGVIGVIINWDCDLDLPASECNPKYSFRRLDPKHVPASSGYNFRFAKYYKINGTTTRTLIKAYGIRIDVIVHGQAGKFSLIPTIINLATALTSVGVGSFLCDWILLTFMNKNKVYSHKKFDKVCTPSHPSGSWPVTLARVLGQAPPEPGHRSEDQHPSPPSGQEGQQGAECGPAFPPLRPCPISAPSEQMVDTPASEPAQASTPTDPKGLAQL
T2 sequence (P56373 1-397): T1 sequence (P56373 1-397)
Nature of the assay: Calcium uptake assay (P2X antagonist assay), P2X2/3 heteromer. In kind it is cell-based. The following applies: calcium uptake assay, hP2X2/3H; read-out: IC50 hP2X2/3H (nM), Ca Influx.
Excerpt: as §1, §2, §3, §4

In the case of `Cc1ccc(-c2cc(C(=O)N[C@@H](C)CO)cc(C(=O)N(C)CC(C)C)c2)cc1` [Compound 1, (S)—N-(1-Hydroxypropan-2-yl)-N-isobutyl-N,4′-dimethylbiphenyl-3,5-dicarboxamide], the IC50 in assay [1] was below 100 nM; in assay [2] it was 100 to 500 nM.
In the case of `Cc1ccc(-c2cc(C(=O)NCC(C)C)cc(C(=O)N[C@@H](C)CO)c2)cc1` [Compound 2, (S)—N3-(1-Hydroxypropan-2-yl)-N5-isobutyl-4′-methylbiphenyl-3,5-dicarboxamide], the IC50 in assay [1] was 501 to 1000 nM; in assay [2], above 1000 nM.
For `Cc1ccc(-c2cc(C(=O)N[C@@H](C)CO)cc(S(C)(=O)=O)c2)cc1` [Compound 3, (S)—N-(1-hydroxypronan-2-yl)-4′-methyl-5-(methylsulfonyl)biphenyl-3-carboxamide], the IC50 in assay [1] is 100 to 500 nM; in assay [2], above 1000 nM.
On to `Cc1ccc(-c2cc(C(=O)O)cc(C(=O)N[C@@H](C)CO)c2)cc1` [Compound 4], for which the IC50 in assay [1] and in assay [2] was above 1000 nM in each case.
Turning to `Cc1ccc(-c2cc(C(=O)N[C@@H](C)CO)cc(C(=O)N[C@@H](C)CO)c2)cc1` [Compound 5], the IC50 in assay [1] was above 1000 nM; in assay [2] it was 501 to 1000 nM.
Taken in the same sequence, the figures for `CCOC(=O)c1cc(C(=O)N[C@@H](C)CO)cc(-c2ccc(C)cc2)c1` [Compound 6, (S)-Ethyl 5-(1-hydroxypropan-2-ylcarbamoyl)-4′-methylbiphenyl-3-carboxylate] were 100 to 500 nM and 501 to 1000 nM.
Taken in the same sequence, the figures for `COc1ccc([C@@H](CO)NC(=O)c2cc(C(=O)N(C)CC(C)C)cc(-c3ccc(C)cc3)c2)cn1` [Compound 7, (S)—N3-(2-hydroxy-1-(6-methoxypyridin-3-yl)ethyl)-N5-isobutyl-N5,4′-dimethyl-biphenyl-3,5-dicarboxamide] were 100 to 500 nM and 100 to 500 nM.
In the case of `Cc1ccc(-c2cc(C(=O)NC(C)c3cnccn3)cc(C(=O)N(C)CC(C)C)c2)cc1` (stereo not drawn) [Compound 8, N3-Isobutyl-N3,4′-dimethyl-N-5-(1-(pyrazin-2-yl)ethyl)biphenyl-3,5-dicarboxamide], the IC50 in assay [1] was below 100 nM; in assay [2] it was 100 to 500 nM.
As to `Cc1ccc(-c2cc(C(=O)NCc3ccc(Cl)nc3)cc(C(=O)N(C)CC(C)C)c2)cc1` [Compound 9, N3-((6-Chloropyridin-3-yl)methyl)-N5-isobutyl-N5,4′-dimethylbiphenyl-3,5-dicarboxamide], the IC50 in assay [1] and in assay [2] was below 100 nM throughout.
Take `Cc1ccc(-c2cc(C(=O)N[C@H](C)c3ccc(C(F)(F)F)nc3)cc(C(=O)N(C)CC(C)C)c2)cc1` [Compound 10, (R)—N3-Isobutyl-N3,4′-dimethyl-N5-(1-(6-(trifluoromethyl)pyridin-3-yl)ethyl)biphenyl-3,5-dicarboxamide]: the IC50 in assay [1] and in assay [2] was 100 to 500 nM throughout.
Take `Cc1ccc(-c2cc(C(=O)NCc3ccn4ccnc4c3)cc(C(=O)N(C)CC(C)C)c2)cc1` [Compound 11, N3-(Imidazo[1,2-a]pyridin-7-ylmethyl)-N5-isobutyl-N5,4′-dimethylbiphenyl-3,5-dicarboxamide]: the IC50 was below 100 nM in assay [1] and 100 to 500 nM in assay [2].
Take `Cc1ccc(-c2cc(C(=O)NCc3cnc(C)nc3)cc(C(=O)N(C)CC(C)C)c2)cc1` [Compound 12, N3-Isobutyl-N3,4′-dimethyl-N5-((2-methylpyrimidin-5-yl)methyl)biphenyl-3,5-dicarboxamide]: the IC50 in assay [1] and in assay [2] was below 100 nM in each case.
`Cc1ccc(-c2cc(C(=O)N[C@H](CCO)c3ccc(C)nc3)cc(C(=O)N(C)CC(C)C)c2)cc1` [Compound 13, (R)—N3-(3-Hydroxy-1-(6-methylpyridin-3-yl)propyl)-N5-isobutyl-N5,4′-dimethylbiphenyl-3,5-dicarboxamide]: the IC50 in assay [1] and in assay [2] was 100 to 500 nM in each case.
Consider `Cc1ccc(-c2cc(C(=O)N[C@H](C)c3cnc(C)nc3)cc(C(=O)N(C)CC(C)C)c2)cc1` [Compound 14, (R)—N3-Isobutyl-N3,4′-dimethyl-N5-(1-(2-methylpyrimidin-5-yl)ethyl)biphenyl-3,5-dicarboxamide], for which the IC50 in assay [1] and in assay [2] was below 100 nM in each case.
As for `CCOC(=O)c1cc(C(=O)NCc2cnc(C)nc2)cc(-c2ccc(C)cc2)c1` [Compound 15, Ethyl 4′-methyl-5-((2-methylpyrimidin-5-yl)methylcarbamoyl)biphenyl-3-carboxylate], the IC50 in assay [1] and in assay [2] was below 100 nM in each case.
For `Cc1ccc(-c2cc(C(=O)NCc3cnc(C)nc3)cc(C(=O)NCc3cnc(C)nc3)c2)cc1` [Compound 16, 4′-Methyl-N3,N5-bis((2-methylpyrimidin-5-yl)methyl)biphenyl-3,5-dicarboxamide], the IC50 in assay [1] and in assay [2] was 100 to 500 nM throughout.
In the case of `Cc1ccc(-c2cc(C(=O)NCc3cnc(C)nc3)cc(C(=O)N3CC(F)(F)C3)c2)cc1` [Compound 17, 5-(3,3-Difluoroazetidine-1-carbonyl)-4′-methyl-N-((2-methylpyrimidin-5-yl)methyl)biphenyl-3-carboxamide], the IC50 in assay [1] and in assay [2] was below 100 nM in each case.
As to `Cc1ccc(-c2cc(C(=O)NCc3cnc(C)nc3)cc(C(=O)N3CCCCC3)c2)cc1` [Compound 18, 4′-Methyl-N-((2-methylpyrimidin-5-yl)methyl)-5-(piperidine-1-carbonyl)biphenyl-3-carboxamide], the IC50 in assay [1] and in assay [2] was below 100 nM in each case.
As for `Cc1ccc(-c2cc(C(=O)NCc3cnc(C)nc3)cc(C(=O)N3CCCCCC3)c2)cc1` [Compound 19, 5-(Azepane-1-carbonyl)-4′-methyl-N-((2-methylpyrimidin-5-yl)methyl)biphenyl-3-carboxamide], the IC50 in assay [1] and in assay [2] was below 100 nM each time.
Consider `Cc1ccc(-c2cc(C(=O)NCc3cnc(C)nc3)cc(C(=O)N3CCCC3)c2)cc1` [Compound 20, 4′-Methyl-N-((2-methylpyrimidin-5-yl)methyl)-5-(pyrrolidine-1-carbonyl)biphenyl-3-carboxamide], for which the IC50 in assay [1] and in assay [2] was below 100 nM throughout.
On to `Cc1ccc(-c2cc(C(=O)O)cc(C(=O)NCc3cnc(C)nc3)c2)cc1` [Compound 21, 4′-Methyl-5-((2-methylpyrimidin-5-yl)methylcarbamoyl)biphenyl-3-carboxylic acid], for which the figures for the IC50 in assay [1] and in assay [2] were 100 to 500 nM and above 1000 nM, respectively.
For `Cc1ccc(-c2cc(C(=O)NCc3cnc(C)nc3)cc(S(C)(=O)=O)c2)cc1` [Compound 22, 4′-Methyl-N-((2-methylpyrimidin-5-yl)methyl)-5-(methylsulfonyl)biphenyl-3-carboxamide] the same measures were below 100 nM and 100 to 500 nM.
For the compound `Cc1ccc(-c2cc(C(=O)NCc3ccc4cccnc4c3)cc(S(C)(=O)=O)c2)cc1` [Compound 23], the IC50 in assay [1] and in assay [2] was 100 to 500 nM in each case.
As to `Cc1ccc(-c2cc(C(=O)NCc3cnc(C)nc3)cc(C(=O)N3CCOCC3)c2)cc1` [Compound 24], the IC50 in assay [1] was below 100 nM; in assay [2] it was 100 to 500 nM.
